From patent US20250128203A1, “MODIFIED REDOX-ACTIVE SORBENTS FOR ELECTROCHEMICAL CARBON DIOXIDE SEPARATION” (The Johns Hopkins University, priority 2023, published 2025)
In brackets after ≈: the same amount, converted by molar mass. Several values for one entry are separate records, joined by “and”; a condition that tells them apart may be missing. Identical values can stand only once.

Columns and labels:
[1] = UV-vis absorption, optical band gap; format: physicochemical; conditions: UV-vis absorption (Kubelka-Munk spectra)
Description: UV-vis absorption spectra were recorded on a Thermo Scientific Genesys 10S UV-vis spectrophotometer.

[2] = Chronoamperometry: reaction rate constant between isoindigo radical anion and CO2; conditions: isoindigo 5 mM in DMF, 0.1 M NBu4PF6; for kbimolecular: first CO2 binding; for kf (20% CO2): forward rate constant
Text: In electrochemistry, the Cottrell equation describes the current response (i) when the potential is a step function in time (t):
where i is current, n is the number of electrons transferred per molecule, A is the area of the electrode, C*0 is the bulk concentration of the redox-active isoindigo molecule, D is the diffusion coefficient, and t is time. The expected current for a diffusion limited electrochemical process following an ECE (electron transfer, chemical reaction, electron transfer) mechanism at a plane electrode under diffusion-controlled conditions is:
where n1 and n2 are the number of electrons transferred in the first and second step, respectively, and kf is the forward reaction rate constant of the chemical reaction. Here, to calculate kf after the first electron transfer, n2 and n1 are set to 1. Eq 3 then becomes:
The integrated Cottrell equation relates total charge Q with time for chronoamperometry: […]
Then, the constant k can be calculated, here k is assumed constant:
To calculate kf, the constant k is calculated using Eq 5 using potentiostatic measurements. Plugging in Eq 6, and rearranging Eq 4 gives:
The data for determining kf is shown in FIGS. 22 to 25 using 5 mM sorbent molecules in 0.1 M NBu4PF6 DMF electrolyte. The value k was determined using data under N2; kf was obtained under 1 bar 20% CO2 (0.0396 M CO2 in solution).

[3] = CO2 binding constant (KCO2) calculated from the shift of the second reduction peak in CV; conditions: for K[CO2] / logK[CO2]: DMF; for ΔEpeak(2): difference between the second reduction peak potentials (IId·−/IId2−) in CO2 and N2
Description: (§1) Electrochemical measurements were conducted using a BioLogic VSP potentiostat (BioLogic Science Instruments). For the cyclic voltammetry measurements, glassy carbon (Ø=3 mm) was used as the working electrode, platinum wire was used as the counter electrode, silver wire was used as the pseudo-reference electrode and ferrocene was used as the internal reference. In a standard cyclic voltammetry measurement, the molecule of interest (2.5 mM) was dissolved in anhydrous DMF with 100 mM NBu4PF6 as the supporting salt. Typical cyclic voltammograms were collected at a scan rate of […]. To study the effects of ionic species on the redox behaviour of the sorbent molecules, 100 mM LiClO4, NaClO4, KClO4, NBu4ClO4, sodium triflate (NaOTf), or sodium bis(trifluoromethanesulfonyl)imide (NaTFSI) was used as the supporting electrolyte salt.
The CO2 binding constant (KCO2) was calculated by Eq 1: […]

[4] = Cyclic voltammetry of isoindigos in DMF (half-wave redox potentials under N2 or CO2); format: physicochemical; conditions: for E1/2 (IId/IId·−) in N2: Table 1, first electron transfer, N2, DMF; for Experimental 1st half-wave potential in N2: Table 5; for Experimental 1st half-wave potential in N2 / E1/2 in CO2 (first or single): vs. Fc^+/Fc; for E1/2 in N2 (second) / E1/2 in CO2 (second): second half-wave potential vs. Fc^+/Fc; for E1/2 in N2 (second) / E1/2 in N2 (first): 0.1 M NBu4PF6, N2, 298 K; for E1/2 in CO2 (first or single) / E1/2 in CO2 (second): 0.1 M NBu4PF6, CO2, 298 K; for E1/2 in N2 (first): first half-wave potential vs. Fc^+/Fc
Description: as §1

[5] = Flow-based EMCC prototype, cyclic CO2 capture/release; conditions: after 11 capture/release cycles over 50+ hours
Description: In a typical experiment, the sorbent tank (20 mL scintillation vial with septum cap) was continuously bubbled with CO2 feed gas (balanced by N2) with the flow rate controlled by a mass flow controller (Alicat). For testing under simulated flue gas conditions, a gas mixture of 10% CO2+3% O2 balanced by N2 was used. An infrared-based CO2 sensor (SprintIR-W 100%) was connected at the gas exit to monitor the CO2 concentration continuously. The tank headspace was filled with plastic beads (McMaster-Carr) to limit the mixing time in the headspace. The Fc tank was kept air free. A two-channel peristaltic pump (Masterflex) circulated the sorbent and the Fc electrolyte to a commercial flow cell (Scribner) at a flow rate of 10 mL min^−1. The flow cell utilised graphite plates with 5 cm^2 interdigitated flow fields pressed against two pieces of carbon paper electrodes (Sigracet 28 AA) at each side of the graphite electrodes to distribute the liquid flow. A Nafion™ 115 membrane was sandwiched by two pieces of polypropylene and placed between the carbon paper electrodes. The cell was kept sealed by Kalrez fluoropolymer elastomer gaskets (0.02 inches thick). CO2 capture was conducted in a constant current mode while the release was carried out following a constant current/constant voltage protocol (that is, oxidizing the adduct at a constant current until a specific cut-off voltage followed by a constant voltage hold (the cut-off current for the constant voltage hold was 5% of the value used in the constant current oxidation). The cycling protocols of each experiment are provided in the corresponding figure captions.
For experiments using 6MCIId sorbent, we added 10 mM 6MCIId and 4 mM ferrocenium tetrafluoroboronate (FcBF4) into the CE tank to mitigate sorbent crossover and facilitate the reduction of the oxidised ferrocenium in the counter electrolyte, respectively. For less soluble 55DBIId and 66DBIId, the sorbent was dispersed in DMAc to form a slurry catholyte.

Solubility in DMF = format: physicochemical; conditions: for solubility: organic solvent or mixture

Structure (SMILES) | Optical band gap [1] | kbimolecular [2] | kf (20% CO2) [2] | K[CO2] ([3]; 298 K) | logK[CO2] ([3]; 298 K) | logK[CO2] ([3]; Table 1) | ΔEpeak(2) [3] | E1/2 (IId/IId·−) in N2 [4] | Experimental 1st half-wave potential in N2 [4] | E1/2 in N2 (second) ([4]; 2.5 mM in DMF) | E1/2 in CO2 (first or single) ([4]; 2.5 mM in DMF) | Sorbent recovered from the sorbent electrolyte after cycling [5] | Sorbent isomerized into cis-isomer after cycling ([5]; 1H NMR) | E1/2 in N2 (first) ([4]; 2.5 mM in DMF) | Solubility in DMF (Solubility in DMF) | CO2 release at approximately −1 V vs. Fc^+/Fc in the presence of water ([4]; 10 vol % water) | Electrochemical behaviours in the presence of O2 ([4]; up to 16% CO2 and 20% O2, 2.5 mM in DMF, 0.1 M NBu4PF6) | solubility (Solubility in DMF) | Positive shift of E1/2 under CO2 compared to unmodified IId ([4]; under CO2, DMF) | E1/2 in CO2 (second) ([4]; 2.5 mM in DMF)
O=C1Nc2cc(Br)ccc2/C1=C1\C(=O)Nc2cc(Br)ccc21 [66DBIId, 6,6′-Dibromoisoindigo] | 2.06 eV | 18.64 M⁻¹ s⁻¹ | 0.738 s⁻¹ | 38800 M⁻¹ | 9.59 | 9.59 | 0.525 V | −1.14 V vs. Fc^+/Fc | −1.14 V | −1.67 V | −1.12 V | 87% | approximately 24% | – | – | – | – | – | – | –
COC(=O)CNC(=O)c1ccc2c(c1)NC(=O)/C2=C1/C(=O)Nc2ccccc21 [6AIIdGly, Methyl isoindigo-6-carbonylglycinate] | 2.04 eV | 19.85 M⁻¹ s⁻¹ | 0.786 s⁻¹ | 4.3e+08 M⁻¹ | 8.63 | – | 0.469 V | – | – | −1.62 V | −1.08 V | – | – | −1.17, V | 606 mM (≈ 229 mg/mL) | – | – | – | – | –
O=C1Nc2ccc(Br)cc2/C1=C1\C(=O)Nc2ccc(Br)cc21 [55DBIId, 5,5′-Dibromoisoindigo] | 1.99 eV | – | – | 2.16e+09 M⁻¹ | 9.33 | 9.33 | 0.510 V | −1.09 V vs. Fc^+/Fc | −1.09 V | −1.61 V | −1.09 V | – | – | −1.09 V and −1.09, V | – | gets suppressed | remained almost unaffected | 6.3 mM (≈ 2.65 mg/mL) | – | –
COC(=O)c1ccc2c(c1)NC(=O)/C2=C1/C(=O)Nc2cc(C(=O)OC)ccc21 [66DMCIId, Dimethyl isoindigo-6,6′-dicarboxylate] | 2.02 eV | – | – | 1.17e+08 M⁻¹ | 8.07 | – | 0.435 V | – | – | −1.41 V | −0.91 V | – | – | −0.97, V | <2.5 mM | – | – | < 2.5 mM | 300 mV | –
O=C1Nc2ccccc2/C1=C1\C(=O)Nc2ccccc21 [IId, Isoindigo] | 2.04 eV | – | – | 2.19e+09 M⁻¹ | 9.34 | 9.34 | 0.511 V | −1.29 V vs. Fc^+/Fc | −1.29 V | −1.79 V | −1.21 V | – | – | −1.29 V and −1.29, V | – | – | – | ~230 mM (≈ 60.3 mg/mL) | – | –
O=C1Nc2ccc(F)cc2/C1=C1\C(=O)Nc2ccc(F)cc21 [55DFIId, 5,5′-Difluoroisoindigo] | 1.97 eV | – | – | 9.13e+09 M⁻¹ | 9.96 | – | 0.547 V | – | – | −1.69 V | −1.13 V | – | – | −1.14, V | – | – | – | – | – | –
COC(=O)c1ccc2c(c1)NC(=O)/C2=C1/C(=O)Nc2ccccc21 [6MCIId, Methyl isoindigo-6-carboxylate] | 2.03 eV | 22.45 M⁻¹ s⁻¹ | 0.889 s⁻¹ | 7.78e+08 M⁻¹ | 8.89 | 8.89 | 0.484 V | −1.12 V vs. Fc^+/Fc | – | −1.62 V | −1.09 V | – | – | −1.12, V | – | – | – | 515 mM (≈ 165 mg/mL) | – | –
CCCCC(CC)CN1C(=O)/C(=C2/C(=O)N(CC(CC)CCCC)c3ccccc32)c2ccccc21 (stereo not drawn) [NNDEHIId, N,N′-Di-(2-ethylhexyl)-isoindigo] | 2.00 eV | – | – | 4.19e+06 M⁻¹ | 6.62 | – | 0.350 V | – | – | −1.80 V | −1.16, V | – | – | −1.23, V | – | – | – | – | – | −1.45 V
CCCN1C(=O)/C(=C2/C(=O)N(CCC)c3cc(Br)ccc32)c2ccc(Br)cc21 [NNDPr66DBIId, N,N′-Dipropyl-6,6′-dibromoisoindigo] | 2.02 eV | 3.3 M⁻¹ s⁻¹ and 3.31 M⁻¹ s⁻¹ | 0.131 s⁻¹ | 74800 M⁻¹ | 4.48 | 4.87 | 0.247 V | −1.07 V vs. Fc^+/Fc | – | −1.61 V | −1.08, V | – | – | −1.07, V | – | – | – | – | – | −1.34 V
